In paper PMC11995724, “Antibiotic target discovery by integrated phenotypic and activity-based profiling of electrophilic fragments” (Cell chemical biology, 2025):

Experiment: in vitro
Settings: human, hek293t cells

SMILES	viability at 48 h, 25 µM
C=CC(=O)N1CCc2[nH]cnc2C1c1ccnn1C (centres unmarked) [3-A07, 1-[4-(1-methyl-1H-pyrazol-5-yl)-1H,4H,5H,6H,7H-imidazo[4,5-c]pyridin-5-yl]prop-2-en-1-one]	29.2%
C=CC(=O)N(CC)CC(=O)N1CCC(c2nnc(C)o2)CC1 [3-A08, N-ethyl-N-{2-[4-(5-methyl-1,3,4-oxadiazol-2-yl)piperidin-1-yl]-2-oxoethyl}prop-2-enamide]	66.3%
C=CC(=O)N1CCOC(c2ccc(F)c(C)c2)C1 (centres unmarked) [3-A09, 1-[2-(4-fluoro-3-methylphenyl)morpholin-4-yl]prop-2-en-1-one]	38.4%
C=CC(=O)NC1CCS(=O)(=O)C(C)C1 (centres unmarked) [3-A10, N-(2-methyl-1,1-dioxo-1lambda6-thian-4-yl)prop-2-enamide]	68.8%
C=CC(=O)N1CCC(Cc2nc(CC)no2)CC1 [3-A11, 1-{4-[(3-ethyl-1,2,4-oxadiazol-5-yl)methyl]piperidin-1-yl}prop-2-en-1-one]	60.7%
C=CC(=O)N(C)CC(=O)NC1CCCN(c2cc(C)nc(C)n2)C1 (centres unmarked) [3-A12, N-({[1-(2,6-dimethylpyrimidin-4-yl)piperidin-3-yl]carbamoyl}methyl)-N-methylprop-2-enamide]	74.4%
C=CC(=O)N1CCCC(c2nc(N(C)C)no2)C1 (centres unmarked) [3-A13, 1-{3-[3-(dimethylamino)-1,2,4-oxadiazol-5-yl]piperidin-1-yl}prop-2-en-1-one]	29.9%
C=CC(=O)N(CC)CC(=O)N1CCc2[nH]nc(C(F)(F)F)c2C1 [3-A14, N-ethyl-N-{2-oxo-2-[3-(trifluoromethyl)-1H,4H,5H,6H,7H-pyrazolo[4,3-c]pyridin-5-yl]ethyl}prop-2-enamide]	64.2%
C=CC(=O)NC(C)c1nnnn1C (centres unmarked) [3-A15, N-[1-(1-methyl-1H-1,2,3,4-tetrazol-5-yl)ethyl]prop-2-enamide]	23.9%
C=CC(=O)N1CCC(C(=O)NCC2COC3(CCCC3)O2)CC1 (centres unmarked) [3-A16, N-({1,4-dioxaspiro[4.4]nonan-2-yl}methyl)-1-(prop-2-enoyl)piperidine-4-carboxamide]	73.4%
C=CC(=O)N1CCOC(c2nc(C)cs2)C1 (centres unmarked) [3-A17, 1-[2-(4-methyl-1,3-thiazol-2-yl)morpholin-4-yl]prop-2-en-1-one]	26.2%
C=CC(=O)N1CCOC(CNC(=O)NC)C1 (centres unmarked) [3-A18, 3-methyl-1-{[4-(prop-2-enoyl)morpholin-2-yl]methyl}urea]	93.3%
C=CC(=O)N1CCN(S(=O)(=O)c2ccc(C(C)(C)C)cc2)CC1 [3-A19, 1-[4-(4-tert-butylbenzenesulfonyl)piperazin-1-yl]prop-2-en-1-one]	24.5%
C=CC(=O)NC(C)c1ccc(S(=O)(=O)N(C)C)cc1 (centres unmarked) [3-A20, N-{1-[4-(dimethylsulfamoyl)phenyl]ethyl}prop-2-enamide]	51.5%
C=CC(=O)N1CCCN(C(=O)c2ccc(OC)cc2)CC1 [3-A21, 1-[4-(4-methoxybenzoyl)-1,4-diazepan-1-yl]prop-2-en-1-one]	53.5%
C=CC(=O)N(C)C[C@@H]1CCC(=O)N1 [3-A22, N-methyl-N-{[(2S)-5-oxopyrrolidin-2-yl]methyl}prop-2-enamide]	150%
C=CC(=O)N1CCC(C(=O)NCc2nccn2-c2ccccc2)CC1 [3-B03, N-[(1-phenyl-1H-imidazol-2-yl)methyl]-1-(prop-2-enoyl)piperidine-4-carboxamide]	86.5%
C=CC(=O)N1CC(n2nc(C)cc2C)C1 [3-B04, 1-[3-(3,5-dimethyl-1H-pyrazol-1-yl)azetidin-1-yl]prop-2-en-1-one]	77.4%
C=CC(=O)NCc1ccc(C(=O)N2CCOC3(CCCC3)C2)cc1 [3-B05, N-[(4-{6-oxa-9-azaspiro[4.5]decane-9-carbonyl}phenyl)methyl]prop-2-enamide]	69.9%
C=CC(=O)Nc1ccc(OC)c(COC)c1 [3-B06, N-[4-methoxy-3-(methoxymethyl)phenyl]prop-2-enamide]	89.7%
C=CC(=O)N1CCC(C(=O)Nc2ccn(Cc3ccccn3)n2)CC1 [3-B07, 1-(prop-2-enoyl)-N-{1-[(pyridin-2-yl)methyl]-1H-pyrazol-3-yl}piperidine-4-carboxamide]	53.3%
C=CC(=O)Nc1ccc(C(=O)NC2CC(C)(C)OC2=O)cc1 (centres unmarked) [3-B08, N-(5,5-dimethyl-2-oxooxolan-3-yl)-4-(prop-2-enamido)benzamide]	82.4%
C=CC(=O)NC1(C(N)=O)CCCC1C (centres unmarked) [3-B09, 2-methyl-1-(prop-2-enamido)cyclopentane-1-carboxamide]	54.5%
C=CC(=O)Nc1cn(CCC)cn1 [3-B10, N-(1-propyl-1H-imidazol-4-yl)prop-2-enamide]	91.1%
C=CC(=O)N[C@H](C)c1cnnn1C [3-B11, N-[(1R)-1-(1-methyl-1H-1,2,3-triazol-5-yl)ethyl]prop-2-enamide]	73.8%

SMILES	viability at 48 h, 25 µM
C=CC(=O)N1CCC(C(=O)NCc2nc(C)c(C)s2)CC1 [3-B12, N-[(4,5-dimethyl-1,3-thiazol-2-yl)methyl]-1-(prop-2-enoyl)piperidine-4-carboxamide]	87.5%
C=CC(=O)NC(C)c1ccc(-n2ccnn2)cc1 (centres unmarked) [3-B13, N-{1-[4-(1H-1,2,3-triazol-1-yl)phenyl]ethyl}prop-2-enamide]	59.2%
C=CC(=O)N1CCC(C(=O)N[C@@H]2C[C@H]2c2ccc(Cl)c(F)c2)CC1 [3-B14, N-[(1R,2S)-2-(4-chloro-3-fluorophenyl)cyclopropyl]-1-(prop-2-enoyl)piperidine-4-carboxamide]	78.3%
C=CC(=O)Nc1ccc(C(=O)N2CCC(C(C)C)CC2)cc1 [3-B15, N-{4-[4-(propan-2-yl)piperidine-1-carbonyl]phenyl}prop-2-enamide]	27.5%
C=CC(=O)N1CCn2c(cnc2C(F)(F)F)C1 [3-B16, 1-[3-(trifluoromethyl)-5H,6H,7H,8H-imidazo[1,5-a]pyrazin-7-yl]prop-2-en-1-one]	81.8%
C=CC(=O)NCC1CCN(c2ccccc2)C1 (centres unmarked) [3-B17, N-[(1-phenylpyrrolidin-3-yl)methyl]prop-2-enamide]	66.8%
C=CC(=O)NCc1ccnc(-n2cncn2)c1 [3-B18, N-{[2-(1H-1,2,4-triazol-1-yl)pyridin-4-yl]methyl}prop-2-enamide]	92.7%
C=CC(=O)NCc1cc(C(F)(F)C(F)(F)F)on1 [3-B19, N-{[5-(1,1,2,2,2-pentafluoroethyl)-1,2-oxazol-3-yl]methyl}prop-2-enamide]	48.4%
C=CC(=O)NCc1noc2c1CCCC2 [3-B20, N-[(4,5,6,7-tetrahydro-1,2-benzoxazol-3-yl)methyl]prop-2-enamide]	74.4%
C=CC(=O)NCCNC(=O)c1cc2ccccc2[nH]1 [3-B21, N-{2-[(1H-indol-2-yl)formamido]ethyl}prop-2-enamide]	63.1%
C=CC(=O)N1CCc2nn(C(C)C)c(=O)cc2C1 [3-B22, 6-(prop-2-enoyl)-2-(propan-2-yl)-2H,3H,5H,6H,7H,8H-pyrido[4,3-c]pyridazin-3-one]	87.7%
C=CC(=O)N1CCC(n2cnc3ccccc3c2=O)C1 (centres unmarked) [3-C03, 3-[1-(prop-2-enoyl)pyrrolidin-3-yl]-3,4-dihydroquinazolin-4-one]	63.6%
C=CC(=O)N(C)CC(=O)N1CCc2cc(OC)c(OC)cc2C1C (centres unmarked) [3-C04, N-[2-(6,7-dimethoxy-1-methyl-1,2,3,4-tetrahydroisoquinolin-2-yl)-2-oxoethyl]-N-methylprop-2-enamide]	84.6%
C=CC(=O)NCc1nc(-c2ccccc2)oc1C [3-C05, N-[(5-methyl-2-phenyl-1,3-oxazol-4-yl)methyl]prop-2-enamide]	50.4%
C=CC(=O)N1CCC(C(=O)Nc2ccccc2NS(C)(=O)=O)CC1 [3-C06, N-(2-methanesulfonamidophenyl)-1-(prop-2-enoyl)piperidine-4-carboxamide]	82.7%
C=CC(=O)N1CCC(C(=O)NC2CC2(C)C)CC1 (centres unmarked) [3-C07, N-(2,2-dimethylcyclopropyl)-1-(prop-2-enoyl)piperidine-4-carboxamide]	30.9%
C=CC(=O)N1CCn2c(nnc2C2CCCC2)C1 [3-C09, 1-{3-cyclopentyl-5H,6H,7H,8H-[1,2,4]triazolo[4,3-a]pyrazin-7-yl}prop-2-en-1-one]	29.4%
C=CC(=O)Nc1ccc(C(=O)NC2CCN(C(C)C)C2=O)cc1 (centres unmarked) [3-C10, N-[2-oxo-1-(propan-2-yl)pyrrolidin-3-yl]-4-(prop-2-enamido)benzamide]	60.6%
C=CC(=O)NC(C)Cn1cncn1 (centres unmarked) [3-C11, N-[1-(1H-1,2,4-triazol-1-yl)propan-2-yl]prop-2-enamide]	37.9%
C=CC(=O)NCCC1CCCS1(=O)=O (centres unmarked) [3-C12, N-[2-(1,1-dioxo-1lambda6-thiolan-2-yl)ethyl]prop-2-enamide]	86.1%
C=CC(=O)N1CCOC(Cn2nc(C)cc2C)C1 (centres unmarked) [3-C13, 1-{2-[(3,5-dimethyl-1H-pyrazol-1-yl)methyl]morpholin-4-yl}prop-2-en-1-one]	40.5%
C=CC(=O)N[C@H]1C[C@H](C)S(=O)(=O)c2sccc21 [3-C14, N-[(2S,4S)-2-methyl-1,1-dioxo-2H,3H,4H-1lambda6-thieno[2,3-b]thiopyran-4-yl]prop-2-enamide]	84.1%
C=CC(=O)N1CCC(C(=O)NCc2nnc(C(C)C)n2C)CC1 [3-C16, N-{[4-methyl-5-(propan-2-yl)-4H-1,2,4-triazol-3-yl]methyl}-1-(prop-2-enoyl)piperidine-4-carboxamide]	78.5%
C=CC(=O)N1CCC(C(=O)N2CCC(C(=O)NCC(C)C)CC2)CC1 [3-C17, N-(2-methylpropyl)-1-[1-(prop-2-enoyl)piperidine-4-carbonyl]piperidine-4-carboxamide]	34.6%
C=CC(=O)N1CCC(C(=O)NCCO)CC1 [3-C18, N-(2-hydroxyethyl)-1-(prop-2-enoyl)piperidine-4-carboxamide]	72.9%
